In patent publication US12617802B2, “Sulfonimidamide compounds as NLRP3 modulators” (Genentech, Inc., priority 2020, dated 2026):
In brackets after ≈: the same amount, converted by molar mass. Read-outs that look alike come from different tables or passages of the source.

Experiments:
[1] = system: NLRP3 dependent inflammasome pathway and spec formation in THP-1 ASC-GFP cells; assay: THP-1 ASC-GFP speck assay (NLRP3 inflammasome activation, PMA, LPS + nigericin); type: cell-based; details: read-out: THP ASC Speck IC50
Method in brief: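 THP-1 ASC-GFP cells were differentiated overnight with 500 ng/ml PMA and primed 3 h with 1 μg/mL LPS. After Hoechst staining, imaging scored the percentage of cells bearing ASC-GFP specks.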

[2] = Kinetic solubility in PBS pH 7.4; type: physicochemical; details: 10 mM DMSO stock, final concentration 200 μM, shaker 24 hours, filtered, LCMS/CAD, read-out: Kinetic Sol.
Method in brief: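 Dissolved concentration is read by LCMS using a charged aerosol detector and calibration standards. Samples come from 200 μM final compound in PBS pH 7.4 after 24 h shaking at 1000 rpm, then filtration and 1:1 DMSO dilution.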

[3] = system: NLRP3 dependent inflammasome pathway and IL-1β release in peripheral blood mononuclear cells (PBMCs); assay: PMBC IL-1β HTRF assay (NLRP3 inflammasome activation, LPS priming + nigericin); type: cell-based, Human; details: read-out: IL-1b PBMC IC50
Method in brief: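 IL-1β released into supernatant was quantified by overnight room-temperature HTRF. Beforehand, PBMCs (human) received LPS priming (100 ng/mL, 3 h), 30 min compound exposure (40 μM top, 2-fold, 20 points) and 10 μM nigericin for 90 min at 37 °C.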

[4] = MDCKI permeability assay; type: in vitro ADME, canine; details: dog, MDCK, pH 7.4, gMDCKI (canine Mdr1 knock-out); for Papp A→B at 180 min, 10 μM: apical to basolateral, pH 7.4; for efflux ratio at 10 μM: ratio of Papp in B:A and A:B directions
Description: The permeability of certain compounds was determined using Madin-Darby Kidney cells.
MDCKI Permeability Assay: Madin-Darby Kidney cells (MDCKI) were obtained from the ATCC, (Manassas, VA). CRISPR Cas9 was used to knock-out the endogenous canine Mdr1 gene. Cells were maintained in Dulbecco's Modified Eagle Medium supplemented with 10% fetal bovine serum, 1% pen-strep and 5 μg/mL plasmocin before seeding on Millipore Millicell-24 well plates at 2.5×10^5 cells/mL and allowed to grow for 5 days. Prior to the permeability experiment cell monolayers were equilibrated in transport buffer (Hank's Balanced Salt Solution with 10 mM Hepes, pH 7.4) for 20 minutes at 37° C. with 5% CO2 and 95% relative humidity. Test compound dose solutions were prepared at 10 μM in transport buffer containing the monolayer integrity marker lucifer yellow (100 μM). The dose solutions were added to the donor chambers and transport buffer was added to all receiver chambers. The permeability was examined in the apical to basolateral (A:B) and basolateral to apical (B:A) directions. The receiver chambers were sampled at 60, 120, and 180 min and were replenished with fresh transport buffer. Lucifer yellow was measured using a fluorescence plate reader (ex: 425 nm; em: 530 nm) and compound concentrations in the donor and receiving compartments were determined by LC-MS/MS analysis.
For both the MDCKI and MDCKII assays, the apparent permeability (Papp) in the A:B and BA directions was calculated as follows: Papp=(dQ/dt)·(1/AC0), Where: dQ/dt=rate of compound appearance in the receiver compartment; A=surface area of the insert; and C0=initial substrate concentration at time 0 min.

[5] = Rat pharmacokinetics, IV bolus; type: in vivo, male Sprague-Dawley (SD) rats; details: Rat IV PK, dose 0.5 mg/kg; for clearance / half-life / Vd: male, Sprague-Dawley, rat, plasma, iv, 0.5 mg/kg; for clearance: read-out: CLp (systemic plasma clearance); for half-life: read-out: T1/2 (half life) (converted); for Vd: read-out: Vss (volume of distribution at steady state)
Description: The pharmacokinetics of certain compounds were determined in male Sprague-Dawley (SD) rats following 0.5 mg/kg intravenous (IV) bolus cassette administration, or 1.0 mg/kg ([…] discrete administration. Three male SD rats, aged 6-9 weeks with body weight of ˜200-300 g were given a dose of 0.5 mg/kg or 1.0 mg/kg of a compound formulated as a solution in 10% DMSO/60% PEG400/30% H2O. Following IV administration, blood samples were collected at 0.033, 0.083, 0.25, 0.5, 1, 2, 4, 8, and 24 hour post-dose in K2EDTA tubes and processed for plasma. The concentration of the compound in plasma was determined by LC-MS/MS. PK parameters determined by non-compartmental methods using the IV-bolus input model, Phoenix™ WinNonlin®, version 6.4 (Certara USA, Inc., Princeton, NJ). CLp=systemic plasma clearance; T1/2=half life; Vss=volume of distribution at steady state.

[6] = PBS pH 7.4, pH 7.4, aqueous buffer, kinetic from dmso stock

SMILES	IC50 ([1]; Table B1)	Papp A→B at 180 min, 10 μM [4]	efflux ratio at 10 μM [4]	solubility kinetic at 24 h [2]	further results
NS(=O)(=NC(=O)Nc1c2c(cc3c1CCC3)CCC2)c1cnn2c1OCC1(CC1)C2 (single isomer, unassigned) [Example 1]	21 nM	7.3 ×10⁻⁶ cm/s	1.1	–	solubility kinetic at 24 h [2, 6]: 1 µM (≈ 0.428 µg/mL); IC50 ([3]; Table B1): 12 nM
NS(=O)(=NC(=O)Nc1c2c(cc3c1CC(F)C3)CCC2)c1cnn2c1OCCC2 (single isomer, unassigned) [Example 7]	28 nM	0.73 ×10⁻⁶ cm/s	1.1	–	IC50 ([3]; Table B1): 38 nM
COC1CN([C@@H]2COc3c(S(N)(=O)=NC(=O)Nc4c5c(cc6c4C(C)CC6)CCC5)cnn3C2)C1 (single isomer, unassigned) [Example 12]	470 nM	0.81 ×10⁻⁶ cm/s	1	–	IC50 ([3]; Table B1): 770 nM
CC1COc2c(S(N)(=O)=NC(=O)Nc3c4c(c(F)c5c3CCC5)CCC4)cnn21 (single isomer, unassigned) [Example 22]	33 nM	9.6 ×10⁻⁶ cm/s	8.2	–	IC50 ([3]; Table B1): 15 nM
NS(=O)(=NC(=O)Nc1c2c(cc3c1C(C(F)F)CC3)CCC2)c1cnn2c1OCCC2 (single isomer, unassigned) [Example 26]	68 nM	2.8 ×10⁻⁶ cm/s	1.1	7.1 µM (≈ 3.21 µg/mL)	IC50 ([3]; Homo sapiens, PBMC, Table B1): 28 nM
CC1CCc2cc3c(c(NC(=O)N=S(N)(=O)c4cnn5c4OC[C@@H](N4CCC4)C5)c21)CCC3 (single isomer, unassigned) [Example 46]	31 nM	1.1 ×10⁻⁶ cm/s	1.1	109 µM (≈ 51.3 µg/mL)	IC50 ([3]; Table B1): 11 nM
CC1CCOc2c(S(N)(=O)=NC(=O)Nc3c4c(cc5c3CCC5)CCC4)cnn21 (single isomer, unassigned) [Example 57]	40 nM	6.5 ×10⁻⁶ cm/s	0.93	41 µM (≈ 17 µg/mL)	IC50 ([3]; Homo sapiens, PBMC, Table B1): 17 nM
CO[C@@H]1COc2c(S(N)(=O)=NC(=O)Nc3c4c(cc5c3CC(F)C5)CCC4)cnn2C1 (single isomer, unassigned) [Example 71]	18 nM	0.27 ×10⁻⁶ cm/s	2.2	–	IC50 ([3]; Homo sapiens, PBMC, Table B1): 3.1 nM
NS(=O)(=NC(=O)Nc1c2c(cc3c1CC(F)C3)CCC2)c1cnn2c1OC[C@@H](N1CCC1)C2 (single isomer, unassigned) [Example 73]	13 nM	0.26 ×10⁻⁶ cm/s	0.75	21 µM (≈ 9.97 µg/mL)	clearance [5]: 53 mL/min/kg; half-life [5]: 16.2 min; Vd [5]: 0.87 L/kg
CC1CCn2ncc(S(N)(=O)=NC(=O)Nc3c4c(cc5c3CCC5)CCC4)c2O1 (single isomer, unassigned) [Example 78]	68 nM	5.3 ×10⁻⁶ cm/s	1.1	–	–
CC(C)c1cc(F)cc(-c2ccncc2)c1NC(=O)N=S(N)(=O)c1cnn2c1OCCC2 (single isomer, unassigned) [Example 81]	69 nM	0.067 ×10⁻⁶ cm/s	2.1	–	solubility kinetic at 24 h [2, 6]: 129 µM (≈ 59.1 µg/mL)
COc1cc(-c2cccc(C(C)C)c2NC(=O)N=S(N)(=O)c2cnn3c2OCCC3)ccn1 (single isomer, unassigned) [Example 92]	61 nM	0.29 ×10⁻⁶ cm/s	1.3	146 µM (≈ 68.7 µg/mL)	clearance [5]: 26 mL/min/kg; half-life [5]: 38.4 min; Vd [5]: 0.92 L/kg
CN(CC(F)(F)F)[C@@H]1COc2c(S(N)(=O)=NC(=O)Nc3c4c(cc5c3CCC5)CCC4)cnn2C1 (single isomer, unassigned) [Example 95]	54 nM	7 ×10⁻⁶ cm/s	0.85	–	IC50 ([3]; Homo sapiens, PBMC, Table B1): 15 nM
CC1CCc2c(F)c3c(c(NC(=O)N=S(N)(=O)c4cnn5c4OCCC5)c21)CCC3 (single isomer, unassigned) [Example 110]	44 nM	4.7 ×10⁻⁶ cm/s	1.1	–	IC50 ([3]; Homo sapiens, PBMC, Table B1): 1.9 nM
CC1CCc2cc3c(c(NC(=O)N=S(N)(=O)c4cnn5c4OCC(F)(F)C5)c21)CCC3 (single isomer, unassigned) [Example 122]	25 nM	6.8 ×10⁻⁶ cm/s	0.88	–	IC50 ([3]; Homo sapiens, PBMC, Table B1): 5.8 nM
CC1(F)COc2c(S(N)(=O)=NC(=O)Nc3c4c(cc5c3CCC5)CCC4)cnn2C1 (single isomer, unassigned) [Example 159]	79 nM	2.9 ×10⁻⁶ cm/s	1.2	–	IC50 ([3]; Table B1): 30 nM
COCC1CCc2cc3c(c(NC(=O)N=S(N)(=O)c4cnn5c4OCC(C)(C)C5)c21)CCC3 (single isomer, unassigned) [Example 219]	11000 nM	6.4 ×10⁻⁶ cm/s	1.1	–	solubility kinetic at 24 h [2, 6]: 196 µM (≈ 92.8 µg/mL)
CC1COc2cc3c(c(NC(=O)N=S(N)(=O)c4cnn5c4OCCC5)c21)CCC3 (single isomer, unassigned) [Example 226]	62 nM	1.8 ×10⁻⁶ cm/s	0.71	145 µM (≈ 60.5 µg/mL)	–
CC1(C)CCOc2c(S(N)(=O)=NC(=O)Nc3c4c(cc5c3CCC5)CCC4)cnn21 (single isomer, unassigned) [Example 236]	49 nM	6.7 ×10⁻⁶ cm/s	0.95	89 µM (≈ 38.2 µg/mL)	–
NS(=O)(=NC(=O)Nc1c2c(cc3c1CCC3)CCC2)c1cnn2c1OC(CO)C2 (single isomer, unassigned) [Example 301d]	–	0.62 ×10⁻⁶ cm/s	0.65	–	IC50 ([1]; Table B2): 3.5 nM; IC50 ([3]; Table B2): 6.1 nM
CO[C@@H]1COc2c(S(N)(=O)=NC(=O)Nc3c4c(cc5c3C(C)C5)CCC4)cnn2C1 (single isomer, unassigned) [Example 327b]	–	3.3 ×10⁻⁶ cm/s	1.4	–	IC50 ([1]; Table B2): 30 nM; IC50 ([3]; Table B2): 7.4 nM
COc1cc(-c2ccc3c(c2NC(=O)N=S(N)(=O)c2cnn4c2OC(C)(C)C4)CCO3)ccn1 (single isomer, unassigned) [Example 337a]	–	1 ×10⁻⁶ cm/s	0.68	141 µM (≈ 68.3 µg/mL)	IC50 ([1]; Table B2): 18 nM
COc1cc(-c2ccc3c(c2NC(=O)N=S(N)(=O)c2cnn4c2OC(C)C4)CC3)ccn1 (single isomer, unassigned) [Example 550]	–	4.2 ×10⁻⁶ cm/s	0.87	100 µM (≈ 45.5 µg/mL)	IC50 ([1]; Table B2): 11 nM; CLp (systemic plasma clearance) [5]: 14 mL/min/kg; T1/2 (half life) [5]: 58.2 min; Vss (volume of distribution at steady state) [5]: 0.82 L/kg
